The text below walks through data of US10183949B2, “Pyrimidinone derivative having autotaxin-inhibitory activity” (The University of Tokyo, priority 2014, dated 2019).

Usually IC50 stands for the concentration that inhibits the measured activity by half.

Molecules are shown by their SMILES.

For the test, the target named is T1, Human autotaxin enzyme (Homo sapiens, UniProt Q13822).
T1 construct: purchased R&D System
Nature of the test: Evaluation of autotaxin inhibitor, 18:0 Lyso PC / choline assay (Test Example 2). It counts as biochemical. The following applies: human autotaxin enzyme, 18:0 Lyso PC substrate, choline assay, room temperature 2 hours; read-out: Inhibitor activity (IC50). In a few lines: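 Human autotaxin in 100 mM Tris-HCl pH 7.5, 150 mM NaCl, 5 mM MgCl2, 0.05% Triton X-100 reacted with 18:0 Lyso PC (200 μM stock) and test compound 2 h at room temperature. Released choline quantified via choline oxidase/peroxidase resorufin fluorescence (ex 531/em 598 nm, 20 min); inhibition vs no-compound and no-enzyme controls, concentration-response curve.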
Regarding `COC(=O)Nc1cc(Cl)ccc1-c1cc(=O)n(CC(=O)NCC2CNC(=O)C2)c(C)n1` (centres unmarked) [Compound I-0438], the concentration for half-maximal inhibition (IC50) lay in the range of 10 to 100 nM. As for `COC(=O)Nc1cc(Cl)ccc1-c1cc(=O)n(CC(=O)NCc2cc(=O)[nH]o2)c(C)n1` [Compound I-0439], the figure is < 10 nM; as for `COC(=O)Nc1cc(Cl)ccc1-c1cc(=O)n(CC(=O)NC2(C(=N)NO)CC2)c(C)n1` [Compound I-0440], 10 to 100 nM; as for `COC(=O)Nc1cc(Cl)ccc1-c1cc(=O)n(CC(=O)N2CC(C(C)(C)O)C2)c(C)n1` [Compound I-0441], 100 to 1000 nM. As for `COC(=O)Nc1cc(Cl)ccc1-c1cc(=O)n(CC(=O)NCC2CNC(=O)O2)c(C)n1` (centres unmarked) [Compound I-0442], the figure is 10 to 100 nM. As for `O=C(Cn1cnc(-c2ccc(Cl)cc2)cc1=O)NCCNC(=O)c1ccc2nn[nH]c2c1` [Compound I-0443], the figure is ≥ 1000 nM; as for `COC(=O)Nc1cc(C#N)ccc1-c1cc(=O)n(CC(=O)NC(C)(C)C(F)(F)F)c(C)n1` [Compound I-0444], < 10 nM; as for `COC(=O)Nc1cc(C#N)ccc1-c1cc(=O)n(CC(=O)N2CCC(C(N)=O)CC2)c(C)n1` [Compound I-0445], < 10 nM.

For the molecule `COC(=O)Nc1cc(C#N)ccc1-c1cc(=O)n(CC(=O)N2CCN(C(N)=O)CC2)c(C)n1` [Compound I-0446], the IC50 was 10 to 100 nM.

Consider `CC(C)(C)C(=O)Nc1cc(Cl)ccc1-c1cc(=O)n(CC(=O)Nc2cnccc2O)cn1` [Compound I-0447], for which the IC50 was in the range of 100 to 1000 nM. For `Cc1nc(-c2ccc(Cl)cc2NC(=O)C2CC2)cc(=O)n1CC(=O)NCC1CCC(=O)N1` (centres unmarked) [Compound I-0450], the IC50 lay within 10 to 100 nM. As for `Cc1nc(-c2ccc(Cl)cc2NC(=O)C2CC2)cc(=O)n1CC(=O)NCC1CNC(=O)C1` (centres unmarked) [Compound I-0451], the figure is 10 to 100 nM; as for `Cc1nc(-c2ccc(Cl)cc2NC(=O)C2CC2)cc(=O)n1CC(=O)NCc1cc(=O)[nH]o1` [Compound I-0452], 10 to 100 nM; as for `Cc1nc(-c2ccc(Cl)cc2NC(=O)C2CC2)cc(=O)n1CC(=O)N1CC(C(C)(C)O)C1` [Compound I-0454], 100 to 1000 nM. With `COC(=O)Nc1cc(Cl)ccc1-c1cc(=O)n(CC(=O)NC2(C(F)(F)F)CC2)c(C)n1` [Compound I-0455] the figure was 10 to 100 nM; with `Cc1nc(-c2ccc(Cl)cc2NC(=O)C2CC2)cc(=O)n1CC(=O)NCC1CNC(=O)O1` (centres unmarked) [Compound I-0456], 10 to 100 nM; with `COC(=O)Nc1cc(Cl)ccc1-c1cc(=O)n(CC(=O)NC(C)(C)C(F)(F)F)c(C)n1` [Compound I-0457], < 10 nM. Take `COC(=O)Nc1cc(Cl)ccc1-c1cc(=O)n(CC(=O)N2CCC(C(N)=O)CC2)c(C)n1` [Compound I-0458]: the IC50 was < 10 nM. With `COC(=O)Nc1cc(Cl)ccc1-c1cc(=O)n(CC(=O)N2CCN(C(N)=O)CC2)c(C)n1` [Compound I-0459] the figure was 10 to 100 nM. As for `O=C(Cn1cnc(-c2ccc(Cl)cc2)cc1=O)NCCCNC(=O)c1ccc2[nH]nnc2c1` [Compound I-0460], the figure is ≥ 1000 nM. As for `Cc1nc(-c2ccc(Cl)cc2NC(=O)C2CC2)cc(=O)n1CC(=O)NC1(C(F)(F)F)CC1` [Compound I-0461], the figure is 10 to 100 nM; as for `Cc1nc(-c2ccc(Cl)cc2NC(=O)C2CC2)cc(=O)n1CC(=O)NC(C)(C)C(F)(F)F` [Compound I-0462], 10 to 100 nM. On to `Cc1nc(-c2ccc(Cl)cc2NC(=O)C2CC2)cc(=O)n1CC(=O)N1CCC(C(N)=O)CC1` [Compound I-0463], for which the IC50 lay within 10 to 100 nM. With `COC(=O)Nc1cc(Cl)ccc1-c1cc(=O)n(CC(=O)NCCNS(C)(=O)=O)c(C)n1` [Compound I-0464] the figure was 10 to 100 nM. With `CNS(=O)(=O)CCNC(=O)Cn1c(C)nc(-c2ccc(Cl)cc2NC(=O)OC)cc1=O` [Compound I-0465] the figure was < 10 nM; with `COC(=O)Nc1cc(Cl)ccc1-c1cc(=O)n(CC(=O)NC2(c3nc(C)no3)CC2)c(C)n1` [Compound I-0467], 10 to 100 nM. As for `CC(C)(C)C(=O)Nc1cc(Cl)ccc1-c1cc(=O)n(CC(=O)N2CCC(C(N)=O)CC2)cn1` [Compound I-0468], the figure is 10 to 100 nM. On to `CC(C)(C)C(=O)Nc1cc(Cl)ccc1-c1cc(=O)n(CC(=O)NCC2CCC(=O)NC2)cn1` (centres unmarked) [Compound I-0469], for which the IC50 is 100 to 1000 nM. Consider `COC(=O)Nc1cc(Cl)ccc1-c1cc(=O)n(CC(=O)NC2(c3nc(=O)o[nH]3)CC2)c(C)n1` [Compound I-0470], for which the IC50 was < 10 nM.

With `COC(=O)Nc1cc(Cl)ccc1-c1cc(=O)n(CC(=O)N2CCC(C(=N)NO)CC2)c(C)n1` [Compound I-0471], the IC50 was 10 to 100 nM. For the molecule `O=C(Cn1cnc(-c2ccc(Cl)cc2)cc1=O)NCCCCNC(=O)c1ccc2nn[nH]c2c1` [Compound I-0472], the IC50 was ≥ 1000 nM.

Turning to `Cc1nc(-c2ccc(Cl)cc2NC(=O)C2CC2)cc(=O)n1CC(=O)NCCNS(C)(=O)=O` [Compound I-0473], the IC50 lay within 10 to 100 nM. As for `CNS(=O)(=O)CCNC(=O)Cn1c(C)nc(-c2ccc(Cl)cc2NC(=O)C2CC2)cc1=O` [Compound I-0474], the figure is 10 to 100 nM. For `Cc1noc(C2(NC(=O)Cn3c(C)nc(-c4ccc(Cl)cc4NC(=O)C4CC4)cc3=O)CC2)n1` [Compound I-0475], the IC50 is 10 to 100 nM. Consider `O=C(Cn1cnc(-c2ccc(Cl)cc2)cc1=O)NCCCCCNC(=O)c1ccc2[nH]nnc2c1` [Compound I-0476], for which the half-inhibitory concentration (IC50) was ≥ 1000 nM. As for `CC(C)(C)NC(=O)c1cccc(Cn2cnc(-c3ccc(Cl)cc3NC(=O)C(C)(C)C)cc2=O)c1` [Compound I-0477], the figure is 100 to 1000 nM; as for `CC(C)(C)C(=O)Nc1cc(Cl)ccc1-c1cc(=O)n(Cc2cccc(C(=O)NCC(N)=O)c2)cn1` [Compound I-0478], 100 to 1000 nM; as for `CNC(=O)NC1CCN(C(=O)Cn2c(C)nc(-c3ccc(Cl)cc3NC(=O)C3CC3)cc2=O)CC1` [Compound I-0479], 10 to 100 nM.

Take `COC(=O)Nc1cc(Cl)ccc1-c1cc(=O)n(CC(=O)NC2(c3ccc(F)cc3)COC2)c(C)n1` [Compound I-0480]: the IC50 is 10 to 100 nM.

As for `COC(=O)Nc1cc(Cl)ccc1-c1cc(=O)n(CC(=O)N2CCN(CC(F)(F)F)CC2)c(C)n1` [Compound I-0481], the 50% inhibitory concentration (IC50) lay within 10 to 100 nM.

`COC(=O)Nc1cc(Cl)ccc1-c1cc(=O)n(CC(=O)N2CCC(c3nc(=O)o[nH]3)CC2)c(C)n1` [Compound I-0482]: the IC50 is < 10 nM. With `O=C(Cn1cnc(-c2ccc(Cl)cc2)cc1=O)NCCCCCCNC(=O)c1ccc2nn[nH]c2c1` [Compound I-0483] the figure was 100 to 1000 nM; with `Cc1nc(-c2ccc(Cl)cc2NC(=O)C2CC2)cc(=O)n1CC(=O)NC1(c2ccc(F)cc2)COC1` [Compound I-0484], 10 to 100 nM; with `Cc1nc(-c2ccc(Cl)cc2NC(=O)C2CC2)cc(=O)n1CC(=O)N1CCN(CC(F)(F)F)CC1` [Compound I-0485], 10 to 100 nM. With `CC(C)(C)C(=O)Nc1cc(Cl)ccc1-c1cc(=O)n(Cc2cccc(C(=O)NC(CO)CO)c2)cn1` [Compound I-0486] the figure was 100 to 1000 nM; with `CCNC(=O)N1CCC(NC(=O)Cn2cnc(-c3ccc(Cl)cc3NC(=O)C(C)(C)C)cc2=O)CC1` [Compound I-0487], 100 to 1000 nM; with `CC(C)(C)C(=O)Nc1cc(Cl)ccc1-c1cc(=O)n(Cc2cccc(C(=O)NCc3c[nH]nn3)c2)cn1` [Compound I-0488], 100 to 1000 nM.
